# Test system: rat aortic ring
# Test: In vitro smooth muscle relaxant activity assay (rat aortic ring assay) in the presence of Cys and L-NAME
# Type: cell-based
# Details: for EC50: rat aortic rings precontracted with phenylephrine (0.3 uM), read-out: Relaxation, EC50
# Procedure: The rat aortic ring assay was utilized as a bioassay to measure the relaxant activity. The rings were precontracted with phenylephrine (0.3 uM) and subsequently compounds were added to the tissue bath in the presence of cysteine (Cys) and N^G -L-nitroarginine methyl ester (L-NAME): In vitro smooth muscle relaxant activity assay in the presence of Cys and L-NAME: […]
Compound,EC50 [µM],smooth muscle relaxant activity (in words) (rat aortic rings precontracted with phenylephrine)
"CCCC1O[C@@H]2C[C@H]3[C@@H]4CCC5=CC(=O)C=C[C@]5(C)[C@H]4[C@@H](ON=O)C[C@]3(C)[C@]2(C(=O)CO)O1 (stereo partly shown) [Example 1, Budesonide-11-nitrite ester]",0.02,–
"CCCC1O[C@@H]2C[C@H]3[C@@H]4CCC5=CC(=O)C=C[C@]5(C)[C@H]4[C@@H](O)C[C@]3(C)[C@]2(C(=O)CO[N+](=O)[O-])O1 (stereo partly shown) [Example 2A, Budesonide-21-Nitrate ester]",5,–
"CCCC1O[C@@H]2C[C@H]3[C@@H]4CCC5=CC(=O)C=C[C@]5(C)[C@H]4[C@@H](O)C[C@]3(C)[C@]2(C(=O)CO)O1 (stereo partly shown) [budesonide, 16a,17-butylidenedioxyprednisolone]",100,did not show any effect
